Data taken from patent US20110295343A1, “NEAR-INFRARED ELECTROMAGNETIC MODIFICATION OF CELLULAR STEADY-STATE MEMBRANE POTENTIALS” (priority 2008, published 2011).
Where “and” joins values, the source holds several entries; their conditions need not be identical. Equal values may be shown once.

Tested on: MRSA (ATCC BAA-43)
Assay: MRSA/antimicrobial potentiation, CFU on TSB agar with and without antibiotic after laser (Example XXII, Experiments 1-4)
Assay type: cell-based, Staphylococcus aureus subsp. aureus
Conditions: for CFU (single plate count): 0.5 μg/ml penicillin G or 4 μg/ml erythromycin, plates 1-5; for AVG (CFU): mean of 5 plates; for Drug Effect: CFU with drug relative to without drug; for Laser Effect (+Drug): Exp vs Cont, both with drug; for Laser Effect (+Meth): both on 30 μg/ml methicillin; for Meth Effect: CFU with methicillin / without; for AVG: mean of plates; for CFU: replicate plates
Procedure: Four separate experiments have been performed.
Eight different laser dosages were used to treat a saline-suspension of logarithmically growing MRSA, labeled A1 to H1.
The treated and a control untreated suspension were diluted and plated in triplicate on trypic soy agar with or without 30 μg/ml methicillin After 24 hrs of growth at 37° C. colonies were counted.
CFU (colony forming units) were compared between the plates with and without methicillin for both control (untreated) and treated MRSA.
The treated and a control untreated suspension were diluted and plated in triplicate on trypic soy agar with or without 30 μg/mlmethicillin.
After 24 hrs of growth at 37° C. colonies were counted.
The treated and a control untreated suspension were diluted and plated in pentuplicate on trypic soy agar with or without 30 μg/ml methicillin.

[1] = Cont (no laser), Drug yes, groups A4/C4/E4
[2] = Cont (no laser), Drug yes, groups B4/D4/F4
[3] = Exp (laser 870+930 at 5 W 14 min, then 930 at 6 W 9 min), Drug yes, groups B4/D4/F4
[4] = Exp (laser 870+930 at 5.5 W 12 min, then 930 at 8 W 6 min), Drug yes, groups A4/C4/E4
[5] = Exp#1 A1 Cont (no laser), agar with 30 μg/ml methicillin
[6] = Exp#1 A1 Exp (laser treated), agar with 30 μg/ml methicillin
[7] = Exp#1 B1 Cont (no laser), agar with 30 μg/ml methicillin
[8] = Exp#1 B1 Exp (laser treated), agar with 30 μg/ml methicillin
[9] = Exp#1 C1 Cont (no laser), agar with 30 μg/ml methicillin
[10] = Exp#1 C1 Exp (laser treated), agar with 30 μg/ml methicillin
[11] = Exp#1 D1 Cont (no laser), agar with 30 μg/ml methicillin
[12] = Exp#1 D1 Exp (laser treated), agar with 30 μg/ml methicillin
[13] = Exp#1 E1 Cont (no laser), agar with 30 μg/ml methicillin
[14] = Exp#1 E1 Exp (laser treated), agar with 30 μg/ml methicillin
[15] = Exp#1 F1 Cont (no laser), agar with 30 μg/ml methicillin
[16] = Exp#1 F1 Exp (laser treated), agar with 30 μg/ml methicillin
[17] = Exp#1 G1 Cont (no laser), agar with 30 μg/ml methicillin
[18] = Exp#1 G1 Exp (laser treated), agar with 30 μg/ml methicillin
[19] = Exp#1 H1 Cont (no laser), agar with 30 μg/ml methicillin
[20] = Exp#1 H1 Exp (laser treated), agar with 30 μg/ml methicillin
[21] = Exp#2 A2 Cont (no laser), agar with 30 μg/ml methicillin
[22] = Exp#2 A2 Exp (laser treated), agar with 30 μg/ml methicillin
[23] = Exp#2 B2 Cont (no laser), agar with 30 μg/ml methicillin
[24] = Exp#2 B2 Exp (laser treated), agar with 30 μg/ml methicillin

Compound: COc1cccc(OC)c1C(=O)N[C@@H]1C(=O)N2[C@@H]1SC(C)(C)[C@@H]2C(=O)O [Methicillin]
- CFU/ml [1]: 2.59E+08 CFU/ml
- CFU (single plate count) (Cont (no laser), Drug yes, groups A4/C4/E4, agar with 30 μg/ml methicillin, 24 hrs 37° C.): 97 CFU and 104 CFU and 82 CFU and 58 CFU and 90 CFU
- AVG (CFU) [1]: 86.2 CFU
- CFU/ml [2]: 3.98E+08 CFU/ml
- CFU (single plate count) (Cont (no laser), Drug yes, groups B4/D4/F4, agar with 30 μg/ml methicillin, 24 hrs 37° C.): 149 CFU and 101 CFU and 119 CFU and 153 CFU and 141 CFU
- AVG (CFU) [2]: 132.6 CFU
- Drug Effect (Cont (no laser), groups A4/C4/E4): 0.94
- Drug Effect (Cont (no laser), groups B4/D4/F4): 1.26
- CFU/ml [3]: 1.27E+08 CFU/ml
- AVG (CFU) [3]: 42.4 CFU
- Drug Effect (Exp (laser 870+930 at 5 W 14 min, then 930 at 6 W 9 min), groups B4/D4/F4): 0.48
- CFU/ml [4]: 1.09E+08 CFU/ml
- AVG (CFU) [4]: 36.2 CFU
- Drug Effect (Exp (laser 870+930 at 5.5 W 12 min, then 930 at 8 W 6 min), groups A4/C4/E4): 0.43
- CFU (single plate count) (Exp (laser: 870 at 5 W and 930 at 5 W for 14 min followed by 930 at 6 W for 9 min), Drug yes, groups B4/D4/F4, 30 μg/ml methicillin): 46 CFU and 34 CFU and 42 CFU and 44 CFU
- CFU (single plate count) (Exp (laser: 870 at 5.5 W and 930 at 5.5 W for 12 min followed by 930 at 8 W for 6 min), Drug yes, groups A4/C4/E4, 30 μg/ml methicillin): 37 CFU and 33 CFU and 36 CFU and 39 CFU
- Laser Effect (+Drug) (laser 870+930 at 5 W 14 min, then 930 at 6 W 9 min, groups B4/D4/F4): 0.32
- Laser Effect (+Drug) (laser 870+930 at 5.5 W 12 min, then 930 at 8 W 6 min, groups A4/C4/E4): 0.42
- Laser Effect (+Meth) (Exp#1 A1, laser Exp / Cont): 0.7035
- Meth Effect (Exp#1 A1 Cont (no laser)): 0.6956
- CFU/ml [5]: 4.25E+08 CFU/ml
- AVG [5]: 141.7 CFU
- CFU [5]: 207 CFU and 137 CFU and 81 CFU
- Meth Effect (Exp#1 A1 Exp (laser treated)): 0.7419
- CFU/ml [6]: 2.99E+08 CFU/ml
- AVG [6]: 99.7 CFU
- CFU [6]: 99 CFU and 96 CFU and 104 CFU
- Laser Effect (+Meth) (Exp#1 B1, laser Exp / Cont): 0.6693
- Meth Effect (Exp#1 B1 Cont (no laser)): 0.8991
- CFU/ml [7]: 5.08E+08 CFU/ml
- AVG [7]: 169.3 CFU
- CFU [7]: 166 CFU and 192 CFU and 150 CFU
- Meth Effect (Exp#1 B1 Exp (laser treated)): 0.5657
- CFU/ml [8]: 3.40E+08 CFU/ml
- AVG [8]: 113.3 CFU
- CFU [8]: 102 CFU and 107 CFU and 131 CFU
- Laser Effect (+Meth) (Exp#1 C1, laser Exp / Cont): 0.3259
- Meth Effect (Exp#1 C1 Cont (no laser)): 1.267
- CFU/ml [9]: 1.22E+09 CFU/ml
- AVG [9]: 406 CFU
- CFU [9]: 240 CFU and 466 CFU and 512 CFU
- Meth Effect (Exp#1 C1 Exp (laser treated)): 0.7192
- CFU/ml [10]: 3.97E+08 CFU/ml
- AVG [10]: 132.3 CFU
- CFU [10]: 95 CFU and 176 CFU and 126 CFU
- Laser Effect (+Meth) (Exp#1 D1, laser Exp / Cont): 1.0087
- Meth Effect (Exp#1 D1 Cont (no laser)): 0.837
- CFU/ml [11]: 4.62E+08 CFU/ml
- AVG [11]: 154 CFU
- CFU [11]: 171 CFU and 141 CFU and 150 CFU
- Meth Effect (Exp#1 D1 Exp (laser treated)): 0.7627
- CFU/ml [12]: 4.66E+08 CFU/ml
- AVG [12]: 155.3 CFU
- CFU [12]: 164 CFU and 153 CFU and 149 CFU
- Laser Effect (+Meth) (Exp#1 E1, laser Exp / Cont): 1.632
- Meth Effect (Exp#1 E1 Cont (no laser)): 0.5828
- CFU/ml [13]: 3.94E+08 CFU/ml
- AVG [13]: 131.3 CFU
- CFU [13]: 147 CFU and 121 CFU and 126 CFU
- Meth Effect (Exp#1 E1 Exp (laser treated)): 0.8297
- CFU/ml [14]: 6.43E+08 CFU/ml
- AVG [14]: 214.3 CFU
- CFU [14]: 181 CFU and 232 CFU and 230 CFU
- Laser Effect (+Meth) (Exp#1 F1, laser Exp / Cont): 0.9949
- Meth Effect (Exp#1 F1 Cont (no laser)): 0.8735
- CFU/ml [15]: 5.94E+08 CFU/ml
- AVG [15]: 198 CFU
- CFU [15]: 197 CFU and 188 CFU and 209 CFU
- Meth Effect (Exp#1 F1 Exp (laser treated)): 0.8289
- CFU/ml [16]: 5.91E+08 CFU/ml
- AVG [16]: 197 CFU
- CFU [16]: 206 CFU (2×) and 179 CFU
- Laser Effect (+Meth) (Exp#1 G1, laser Exp / Cont): 0.9605
- Meth Effect (Exp#1 G1 Cont (no laser)): 0.9792
- CFU/ml [17]: 6.58E+08 CFU/ml
- AVG [17]: 219.3 CFU
- CFU [17]: 246 CFU and 222 CFU and 190 CFU
- Meth Effect (Exp#1 G1 Exp (laser treated)): 0.8681
- CFU/ml [18]: 6.32E+08 CFU/ml
- AVG [18]: 210.7 CFU
- CFU [18]: 193 CFU and 237 CFU and 202 CFU
- Laser Effect (+Meth) (Exp#1 H1, laser Exp / Cont): 1.0381
- Meth Effect (Exp#1 H1 Cont (no laser)): 0.7533
- CFU/ml [19]: 5.77E+08 CFU/ml
- AVG [19]: 192.3 CFU
- CFU [19]: 188 CFU and 206 CFU and 183 CFU
- Meth Effect (Exp#1 H1 Exp (laser treated)): 0.815
- CFU/ml [20]: 5.99E+08 CFU/ml
- AVG [20]: 199.7 CFU
- CFU [20]: 211 CFU and 212 CFU and 176 CFU
- Laser Effect (+Meth) (Exp#2 A2, laser Exp / Cont): 1.15
- Meth Effect (Exp#2 A2 Cont (no laser)): 0.72
- CFU/ml [21]: 1.07E+08 CFU/ml
- AVG [21]: 35.7 CFU
- CFU [21]: 35 CFU and 47 CFU and 25 CFU
- Meth Effect (Exp#2 A2 Exp (laser treated)): 0.87
- CFU/ml [22]: 1.23E+08 CFU/ml
- AVG [22]: 41 CFU
- CFU [22]: 39 CFU and 48 CFU and 36 CFU
- Laser Effect (+Meth) (Exp#2 B2, laser Exp / Cont): 0.54
- Meth Effect (Exp#2 B2 Cont (no laser)): 0.7
- CFU/ml [23]: 1.49E+08 CFU/ml
- AVG [23]: 49.7 CFU
- CFU [23]: 47 CFU and 56 CFU and 46 CFU
- Meth Effect (Exp#2 B2 Exp (laser treated)): 0.77
- CFU/ml [24]: 8.00E+07 CFU/ml
- AVG [24]: 26.7 CFU
- CFU [24]: 27 CFU and 28 CFU and 25 CFU
- Laser Effect (+Meth) (Exp#2 C2, laser Exp / Cont): 0.23
- Meth Effect (Exp#2 C2 Cont (no laser)): 0.99
